Data as given in patent US8106236B2, “Triaryl compounds and derivates thereof” (Ortho-McNeil Pharmaceutical, Inc., priority 2006, dated 2012).

test system: Aβ42; experiment: In vivo Aβ42 lowering, rat; conditions: oral dose 30 mpk at 4 hr time point
Text: (§1) To determine whether acute administration of an Aβ42 lowering agent would reduce Aβ42 levels in vivo, non-transgenic rodents, e.g. mice or rats can be used. Alternatively, two to three month old Tg2576 mice expressing APP695 containing the “Swedish” variant can be used or a transgenic mouse model developed by Dr. Fred Van Leuven (K.U.Leuven, Belgium) and co-workers, with neuron-specific expression of a clinical mutant of the human amyloid precursor protein [V717I] (Moechars et al., 1999 J. Biol. Chem. 274, 6483). […] Animals of this age have high levels of Aβ in the brain but no detectable Aβ deposition. Mice treated with the Aβ42 lowering agent will be examined and compared to those untreated or treated with vehicle and brain levels of soluble Aβ42 and total Aβ would be quantitated by standard techniques, for example, using ELISA. Treatment periods may vary from hours to days and will be adjusted based on the results of the Aβ42 lowering once a time course of onset of effect can be established.
(§2) A typical protocol for measuring Aβ42 lowering in vivo is shown but it is only one of many variations that could be used to optimize the levels of detectable Aβ. For example, aliquots of compounds can be dissolved in DMSO (volume equal to 1/10th of the final formulation volume), vortexed and further diluted (1:10) with a 10% (w/v) hydroxypropyl β cyclodextrin (HBC, Aldrich, Ref N° 33,260-7) solution in PBS, where after they are sonicated for 20 seconds.
(§3) Aβ42 lowering agents may be administered as a single oral dose given three to four hours before sacrifice and analysis or alternatively could be given over a course of days and the animals sacrificed three to four hours after the final dose is given.
(§4) Blood is collected at sacrifice. The blood collection is performed via a heart puncture during anesthesia with a mixture of Ketalar (Ketamin), Rompun (Xylazin 2%) and Atropin (2:1:1) and collected in EDTA treated collection tubes. Blood is centrifuged at 4000 g for 5 minutes at 4° C. and the plasma recovered for analysis.
(§5) The mice are anaesthetized with a mixture of Ketalar (Ketamin), Rompun (Xylazin 2%) and Atropin (2:1:1) and flushed trans-cardially with physiological serum at 4° C.
(§6) The brain is removed from the cranium and hindbrain and forebrain are separated with a cut in the coronal/frontal plane. The cerebellum is removed. The forebrain is divided evenly into left and right hemisphere by using a midline sagital cut.
(§7) One hemisphere is immediately immersed in liquid nitrogen and stored at −70° C. until homogenization for biochemical assays.
(§8) Brains are homogenized using a Potter, a glass tube (detergent free, 2 cm^3) and a mechanical homogenizer (650 rpm). A volume of 6.5×½ brain weight of freshly prepared 20 mM Tris/HCl buffer (pH 8.5) with Proteinase Inhibitors (1 tablet per 50 ml Tris/HCl buffer, Complete™, Roche, Mannheim, Germany) is used as homogenization buffer.
(§9) Samples are transferred from −70° C. into a sample holder with liquid nitrogen and each individual sample is pre-warmed by incubation on the bench for a few seconds prior to homogenization. The homogenates are collected in Beckman centrifuge tubes TLX and collected on ice prior to centrifugation. Between two samples, the Potter and the glass tube are rinsed carefully with distilled water without detergents and dried with absorption paper.
(§10) Samples are centrifuged in a pre-cooled ultracentrifuge (Beckman, Mannheim, Germany) for 1 hour and 20 minutes at 48000 rpm (135.000×g) at 4° C. The supernatant (soluble fraction containing secreted APP and amyloid peptides) is separated from the pellet (membrane fraction containing membrane-bound APP-fragments and plaque-associated amyloid peptides in case of aged mice).
(§11) Small reversed phase columns (C18-Sep-Pack Vac 3 cc cartridges, Waters, Mass., MA) are mounted on a vacuum system and washed with 80% acetonitrile in 0.1% Trifluoroacetic acid (A-TFA) followed with 0.1% TFA twice. […]

In order of rising “Rat Efficacy % Lowering Aβ 42” value:
1. CC(C)C[C@@H](C(=O)O)c1cc(-c2ccc(C(F)(F)F)cc2)cc(-c2cc(C(F)(F)F)cc(C(F)(F)F)c2)c1 [Compound 44, (R)-4-Methyl-2-(3,5,4″-tris-trifluoromethyl-[1,1′;3′,1″]terphenyl-5′-yl)-pentanoic acid]  −10%
2. CC(C)CC(C(=O)O)c1cc(-c2ccc(OC(F)(F)F)cc2)cc(-c2ccc(C(F)(F)F)cc2)c1 (stereo not shown) [Compound 20, 4-Methyl-2-(4-trifluoromethoxy-4″-trifluoromethyl-[1,1′;3′,1″]terphenyl-5′-yl)-pentanoic acid]  20%

test system: Aβ42; experiment: In vivo Aβ42 lowering, mouse; conditions: oral dose 30 mpk at 4 hr time point, read-out: Mouse Efficacy % Lowering Aβ 42
Text: as §1, §2, §3, §4, §5, §6, §7, §8, §9, §10, §11

In order of rising inhibition in vivo at 30 mg/kg:
1. CC(C)CC(C(=O)O)c1cc(-c2ccc(C#N)cc2)cc(-c2ccc(C(F)(F)F)cc2)c1 (stereo not shown) [Compound 16, 2-(4-Cyano-4″-trifluoromethyl-[1,1′;3′,1″]terphenyl-5′-yl)-4-methyl-pentanoic acid]  10%
2. CC(C)CC(C(=O)O)c1cc(-c2ccc(C(C)C)cc2)cc(-c2ccc(C(F)(F)F)cc2)c1 (stereo not shown) [Compound 4, 2-(4-Isopropyl-4″-trifluoromethyl-[1,1′;3′,1″]terphenyl-5′-yl)-4-methyl-pentanoic acid]  30%
3. CC(C)C[C@@H](C(=O)O)c1cc(-c2ccc(C(F)(F)F)cc2)cc(-c2cc(C(F)(F)F)cc(C(F)(F)F)c2)c1 [Compound 44, (R)-4-Methyl-2-(3,5,4″-tris-trifluoromethyl-[1,1′;3′,1″]terphenyl-5′-yl)-pentanoic acid]  40%
4. CC(C)C[C@H](C(=O)O)c1cc(-c2ccc(C(F)(F)F)cc2)cc(-c2cc(C(F)(F)F)cc(C(F)(F)F)c2)c1 [Compound 43, (S)-4-Methyl-2-(3,5,4″-tris-trifluoromethyl-[1,1′;3′,1″]terphenyl-5′-yl)-pentanoic acid]  40%
5. CC(C)C[C@@H](C(=O)O)c1cc(-c2ccc(C(F)(F)F)cc2)cc(-c2ccc(Cl)c(F)c2)c1 [Compound 47, (R)-2-(4-Chloro-3-fluoro-4″-trifluoromethyl-[1,1′;3′,1″]terphenyl-5′-yl)-4-methyl-pentanoic acid]  45%
6. CC(C)C[C@@H](C(=O)O)c1cc(-c2ccc(C(F)(F)F)cc2)cc(-c2cc(F)cc(F)c2)c1 [Compound 42, (R)-2-(3,5-Difluoro-4″-trifluoromethyl-[1,1′;3′,1″]terphenyl-5′-yl)-4-methyl-pentanoic acid]  48%
7. CC(C)C[C@H](C(=O)O)c1cc(-c2ccc(OC(F)(F)F)cc2)cc(-c2ccc(C(F)(F)F)cc2)c1 [Compound 52, (S)-4-Methyl-2-(4-trifluoromethoxy-4″-trifluoromethyl-[1,1′;3′,1″]terphenyl-5′-yl)-pentanoic acid]  48%
8. CC(C)C[C@@H](C(=O)O)c1cc(-c2ccc(OC(F)(F)F)cc2)cc(-c2ccc(C(F)(F)F)cc2)c1 [Compound 51, (R)-4-Methyl-2-(4-trifluoromethoxy-4″-trifluoromethyl-[1,1′;3′,1″]terphenyl-5′-yl)-pentanoic acid]  50%
9. CC(C)CC(C(=O)O)c1cc(-c2ccc(OC(F)(F)F)cc2)cc(-c2ccc(C(F)(F)F)cc2)c1 (stereo not shown) [Compound 20, 4-Methyl-2-(4-trifluoromethoxy-4″-trifluoromethyl-[1,1′;3′,1″]terphenyl-5′-yl)-pentanoic acid]  50%
10. CC(C)C[C@H](C(=O)O)c1cc(-c2ccc(C(F)(F)F)cc2)cc(-c2cc(F)cc(F)c2)c1 [Compound 41, (S)-2-(3,5-Difluoro-4″-trifluoromethyl-[1,1′;3′,1″]terphenyl-5′-yl)-4-methyl-pentanoic acid]  58%

target: γ-secretase (Homo sapiens, UniProt P49768); experiment: Screening for γ-secretase-modulating activity, Aβ42 in SKNBE2 cells carrying APP 695 wild type; format: cell-based; conditions: read-out: WTAPP SKNBE2 Aβ 42% Inhibition at 3 μM
Description: Screening of the Compounds of the Invention for γ-Secretase-Modulating Activity
Cells were grown to near confluency.

In order of falling inhibition at 3 µM:
1. CC(C)CC(C(=O)O)c1cc(-c2ccc(C(F)(F)F)cc2)cc(-c2cccc(C(F)(F)F)c2)c1 (stereo not shown) [Compound 12, 2-(3,4″-Bis-trifluoromethyl-[1,1′;3′,1″]terphenyl-5′-yl)-4-methyl-pentanoic acid]  86%
2. CC(C)CC(C(=O)O)c1cc(-c2ccc(C(F)(F)F)cc2)cc(-c2cc(Cl)ccc2Cl)c1 (stereo not shown) [Compound 23, 2-(2,5-Dichloro-4″-trifluoromethyl-[1,1′;3′,1″]terphenyl-5′-yl)-4-methyl-pentanoic acid]  84%
3. CC(C)CC(C(=O)O)c1cc(-c2ccc(C#N)cc2)cc(-c2cc(C(F)(F)F)cc(C(F)(F)F)c2)c1 (stereo not shown) [Compound 37, 2-(4-Cyano-3″,5″-bis-trifluoromethyl-[1,1′;3′,1″]terphenyl-5′-yl)-4-methyl pentanoic acid]  84%
4. C=C(C)CC(C(=O)O)c1cc(-c2ccc(C(F)(F)F)cc2)cc(-c2ccc(C(F)(F)F)cc2)c1 (stereo not shown) [Compound 25, 2-(4,4″-Bis-trifluoromethyl-[1,1′;3′,1″]terphenyl-5′-yl)-4-methyl-pent-4-enoic acid]  82%
5. CC(C)CC(C(=O)O)c1cc(-c2cc(F)cc(F)c2)cc(-c2cc(F)cc(C(F)(F)F)c2)c1 (stereo not shown) [Compound 32, 4-Methyl-2-(3,5,3″-trifluoro-5″-trifluoromethyl-[1,1′;3′,1″]terphenyl-5′-yl)-pentanoic acid]  80%
6. CC(C)CC(C(=O)O)c1cc(-c2cccc(C#N)c2)cc(-c2cc(C(F)(F)F)cc(C(F)(F)F)c2)c1 (stereo not shown) [Compound 34, 2-(3-Cyano-3″,5″-bis-trifluoromethyl-[1,1′;3′,1″]terphenyl-5′-yl)-4-methyl pentanoic acid]  73%
7. Cc1ccc(-c2cc(-c3ccc(C(F)(F)F)cc3)cc(C(CC(C)C)C(=O)O)c2)cc1 (stereo not shown) [Compound 11, 4-Methyl-2-(4-methyl-4″-trifluoromethyl-[1,1′;3′,1″]terphenyl-5′-yl)-pentanoic acid]  68%
8. CC(C)CC(C(=O)O)c1cc(-c2ccc(C(F)(F)F)cc2)cc(-c2ccccc2C(F)(F)F)c1 (stereo not shown) [Compound 6, 2-(2,4″-Bis-trifluoromethyl-[1,1′;3′,1″]terphenyl-5′-yl)-4-methyl-pentanoic acid]  65%
9. CC(C)CC(C(=O)O)c1cc(-c2ccc(C(F)(F)F)cc2)cc(-c2ccc(F)cc2F)c1 (stereo not shown) [Compound 2, 2-(2,4-Difluoro-4″-trifluoromethyl-[1,1′;3′,1″]terphenyl-5′-yl)-4-methyl-pentanoic acid]  53%
10. CC(C)CC(C(=O)O)c1cc(-c2cc(F)cc(F)c2)cc(-c2cc(F)cc(F)c2)c1 (stereo not shown) [Compound 38, 4-Methyl-2-(3,5,3″,5″-tetrafluoro-[1,1′;3′,1″]terphenyl-5′-yl)-pentanoic acid]  53%
11. COc1ccc(-c2cc(-c3ccc(C(F)(F)F)cc3)cc(C(CC(C)C)C(=O)O)c2)cc1 (stereo not shown) [Compound 24, 2-(4-Methoxy-4″-trifluoromethyl-[1,1′;3′,1″]terphenyl-5′-yl)-4-methyl-pentanoic acid]  53%
12. CC(C)CC(C(=O)O)c1cc(-c2ccc(C(F)(F)F)cc2)cc(-c2ccc(S(C)(=O)=O)cc2)c1 (stereo not shown) [Compound 21, 2-(4-Methanesulfonyl-4″-trifluoromethyl-[1,1′;3′,1″]terphenyl-5′-yl)-4-methyl-pentanoic acid]  46%
13. CC(=O)c1ccc(-c2cc(-c3ccc(C(F)(F)F)cc3)cc(C(CC(C)C)C(=O)O)c2)cc1 (stereo not shown) [Compound 48, 2-(4-Acetyl-4″-trifluoromethyl-[1,1′;3′,1″]terphenyl-5′-yl)-4-methyl-pentanoic acid]  18%
14. CC(C)CC(C(=O)O)c1cc(-c2ccc(C(F)(F)F)cc2)cc(-c2cc(F)cc(C#N)c2)c1 (stereo not shown) [Compound 36, 2-(5-Cyano-3-fluoro-4″-trifluoromethyl-[1,1′;3′,1″]terphenyl-5′-yl)-4-methyl-pentanoic acid]  0%
15. CC(C)CC(C(=O)O)c1cc(-c2ccc(C(F)(F)F)cc2)cc(-c2ccccc2F)c1 (stereo not shown) [Compound 8, 2-(2-Fluoro-4″-trifluoromethyl-[1,1′;3′,1″]terphenyl-5′-yl)-4-methyl-pentanoic acid]  -1%
16. CC(C)CC(C(=O)O)c1cc(-c2ccc(C(F)(F)F)cc2)cc(-c2cccc(N(C)C)c2)c1 (stereo not shown) [Compound 49, 2-(3-Dimethylamino-4″-trifluoromethyl-[1,1′;3′,1″]terphenyl-5′-yl)-4-methyl-pentanoic acid]  -17%
